Results taken from patent US11084826B2, “RSV antiviral pyrazolo- and triazolo-pyrimidine compounds” (Janssen Sciences Ireland Unlimited Company, priority 2015, dated 2021).

How the values were obtained:
rgRSV224 virus = assay: Antiviral activity: inhibition of rgRSV224 (GFP-expressing RSV) replication in HeLa cells, GFP expression read-out; type: cell-based, respiratory syncytial virus (RSV); settings: human respiratory syncytial virus, HeLa, read-out: RSV HELA pEC50, rgRSV224 virus (MOI=1) in HeLa cells, GFP read-out (converted)
Outline: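 HeLa cells (3,000/well) were infected with GFP-expressing rgRSV224 (MOI=1) in the presence of 9 serial 4-fold compound dilutions (0.05% DMSO) and incubated at 37° C, 5% CO2. After three days, GFP expression was measured by laser microscopy. EC50 is the concentration giving 50% inhibition of GFP expression.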

[1] = Cytotoxicity in HeLa cells, ATP content measured with the ATPlite kit; type: cell-based; settings: human, TOX HELA pCC50

CCc1cc(C(=O)N2CCCCCC2C)nc2cc(-c3ccc(NC(=O)c4nccn4C)cc3)nn12 (stereo not drawn) [Compound E22]
melting point: 196 to 198 °C
EC50 (rgRSV224 virus): 1700 nM
CC50 at 3 days [1]: 21900 nM

CCc1cc(C(=O)N2CCCCCC2C)nc2cc(-c3ccc(NC(=O)Cc4ccncc4)cc3)nn12 (stereo not drawn) [Compound E23]
melting point: 232 to 234 °C
EC50 (rgRSV224 virus): 646 nM
CC50 at 3 days [1]: > 25100 nM

CCc1cc(C(=O)N2CCCCCC2C)nc2cc(-c3ccc(NC(=O)CCC(=O)O)cc3F)nn12 (stereo not drawn) [Compound E24]
melting point: 225 to 230 °C
EC50 (rgRSV224 virus): 282 nM
CC50 at 3 days [1]: > 25100 nM

CCc1cc(C(=O)N2CCCCCC2C)nc2cc(-c3ccc(NC(=O)CCC(N)=O)cc3F)nn12 (stereo not drawn) [Compound E25]
melting point: 155 to 160 °C
EC50 (rgRSV224 virus): 61.7 nM
CC50 at 3 days [1]: > 25100 nM

CCc1cc(C(=O)N2CCCCCC2C)nc2cc(-c3ccc(N4C(=O)CCC4=O)cc3F)nn12 (stereo not drawn) [Compound E26]
melting point: 190 to 195 °C
EC50 (rgRSV224 virus): 407 nM
CC50 at 3 days [1]: > 25100 nM

CCc1cc(C(=O)N2CCCCCC2C)nc2cc(-c3ccc(NC(=O)CCC(=O)NC)cc3F)nn12 (stereo not drawn) [Compound E27]
melting point: 215 to 220 °C
EC50 (rgRSV224 virus): 117 nM
CC50 at 3 days [1]: > 25100 nM

CCc1cc(C(=O)N2CCCCCC2C)nc2cc(-c3ccc(NC(=O)CCC(=O)N(C)C)cc3F)nn12 (stereo not drawn) [Compound E28]
melting point: 180 to 185 °C
EC50 (rgRSV224 virus): 117 nM
CC50 at 3 days [1]: > 25100 nM

CCc1cc(C(=O)N2CCCCCC2C)nc2cc(-c3ccc(NC(=O)CCC(=O)NC)cc3)nn12 (stereo not drawn) [Compound E29]
melting point: 204 to 205 °C
EC50 (rgRSV224 virus): 457 nM
CC50 at 3 days [1]: > 25100 nM

CCc1cc(C(=O)N2CCCCCC2C)nc2cc(-c3csc(NC(=O)C4CC4)n3)nn12 (stereo not drawn) [Compound E30]
melting point: 277 to 279 °C
EC50 (rgRSV224 virus): 1820 nM
CC50 at 3 days [1]: > 25100 nM

CCc1cc(C(=O)N2CCCCC2C)nc2cc(-c3ccc(-c4ccncc4)cc3)nn12 (stereo not drawn) [Compound F1]
melting point: 150 to 151 °C
EC50 (rgRSV224 virus): 871 nM
CC50 at 3 days [1]: 38000 nM

CCc1cc(C(=O)N2CCCCCC2C)nc2cc(-c3ccc(-c4cncnc4)cc3)nn12 (stereo not drawn) [Compound F3]
melting point: 185 °C
EC50 (rgRSV224 virus): 832 nM
CC50 at 3 days [1]: > 100000 nM

CCc1cc(C(=O)N2CCCCCC2C)nc2cc(-c3ccc(-c4cccnc4)cc3F)nn12 (stereo not drawn) [Compound F4]
melting point: 167 to 168 °C
EC50 (rgRSV224 virus): 724 nM
CC50 at 3 days [1]: > 25100 nM

CCc1cc(C(=O)N2CCCCCC2C)nc2cc(-c3ccc(-c4ccn[nH]4)cc3F)nn12 (stereo not drawn) [Compound F5]
melting point: 75 to 76 °C
EC50 (rgRSV224 virus): 309 nM
CC50 at 3 days [1]: > 25100 nM

CCc1cc(C(=O)N2CCCCCC2C)nc2cc(-c3ccc(-c4cncc(F)c4)cc3F)nn12 (stereo not drawn) [Compound F7]
melting point: 95 to 96 °C
EC50 (rgRSV224 virus): 2090 nM
CC50 at 3 days [1]: > 25100 nM

CCc1cc(C(=O)N2CCCCCC2C)nc2cc(-c3ccc(-c4cccnc4F)cc3F)nn12 (stereo not drawn) [Compound F8]
melting point: 86 to 87 °C
EC50 (rgRSV224 virus): 2340 nM
CC50 at 3 days [1]: > 25100 nM

CCc1cc(C(=O)N2CCCCCC2C)nc2cc(-c3ccc(-c4cnn(C)c4)cc3F)nn12 (stereo not drawn) [Compound F9]
melting point: 65 to 67 °C
EC50 (rgRSV224 virus): 661 nM
CC50 at 3 days [1]: > 25100 nM

CCc1cc(C(=O)N2CCCCCC2C)nc2cc(-c3ccc(-c4cn(C)c(C)n4)cc3F)nn12 (stereo not drawn) [Compound F10]
melting point: 118 to 119 °C
EC50 (rgRSV224 virus): 692 nM
CC50 at 3 days [1]: > 25100 nM

CCc1cc(C(=O)N2CCCCCC2C)nc2cc(-c3ccc(-c4ccc(C(=O)O)cn4)cc3F)nn12 (stereo not drawn) [Compound F14]
melting point: 245 to 250 °C
EC50 (rgRSV224 virus): 182 nM
CC50 at 3 days [1]: > 25100 nM

CCc1cc(C(=O)N2CCCCC[C@H]2C)nc2cc(-c3ccc(-c4ccc(C(=O)O)cn4)cc3F)nn12 [Compound F15]
melting point: 181 to 182 °C
EC50 (rgRSV224 virus): 120 nM
CC50 at 3 days [1]: > 25100 nM

CCc1cc(C(=O)N2CCCCCC2C)nc2cc(-c3ccc(-c4ncc(C)cn4)cc3F)nn12 (stereo not drawn) [Compound F17]
melting point: 140 to 145 °C
EC50 (rgRSV224 virus): 646 nM
CC50 at 3 days [1]: > 25100 nM
